Results reported in US20160368943A1, “SUBSTITUTED PURINE COMPOUNDS” (EPIZYME, INC., priority 2013, published 2016).
Where two headings read alike, the source gives them in different places.

Tests used:
Plasma stability, rat = format: in vitro ADME; settings: Sprague Dawley, pooled plasma, 37° C., read-out: Half-life in ex vivo blood plasma
Source text: (§1) Samples were quenched in methanol and analyzed by LC-MS/MS analysis.

Plasma stability, human = format: in vitro ADME; settings: pooled plasma, 37° C., read-out: Half-life in ex vivo blood plasma
Source text: as §1

[1] = Hepatocyte stability, dog; format: in vitro ADME, Beagle dog
Description: (§2) Human, Beagle dog, Sprague-Dawley rat, and CD-1 mouse cryopreserved hepatocytes were obtained from XenoTech and stored at −150° C. until use. The hepatocytes were thawed and prepared according to the vendor's instructions, pooled into Krebs Henseleit buffer (KHB, pH 7.4), and kept on ice prior to initiating an experiment. […] The reaction mixture was incubated in a shaking water bath at 37° C. Aliquots of the incubation solutions were sampled at 0, 15, 30, 60, and 120 minutes. The reaction was immediately terminated by the addition of three volumes of ice-cold acetonitrile containing 0.1% formic acid and internal standards. After centrifugation at 1640×g for 10 minutes, the supernatants were transferred into HPLC vials, and the test compound was analyzed by LC-MS/MS. Positive controls, testosterone (20 μM) and 7-hydroxycoumarin (100 μM), were performed in parallel to confirm the enzyme activities of the hepatocytes used.
(§3) Experimental half-lives were transformed to the corresponding intrinsic clearance values and subsequently scaled to predicted in vivo clearance values, using the well-stirred model as previously described (Houston, Biochemical Pharmacology 47(9): 1469-1479, 1994; Obach, Drug Metabolism and Disposition 27(11): 1350-1359, 1999), with appropriate species-specific scaling factors (Barter et al., Current Drug Metabolism 8(1): 33-45, 2007).

[2] = Metabolite profiling in liver microsomes with NADPH and UDPGA, mouse; format: in vitro ADME; settings: Compound A 10 μM, 20 min
Description: Compound A was incubated with liver microsomes of various species (mouse, rat, dog or human). […] For all liver microsomal incubations, samples were taken at 0 and 20 minutes. All samples were quenched by using acetonitrile/methanol solution and analyzed using an LC-MS/MS Q-Trap system (AB Sciex, Framingham, Mass.).
The corresponding product ion tandem mass spectra of Compound A and its metabolites were obtained by using enhanced product ion (EPI) scans during positive ion electrospray. The possible chemical structures of the metabolites were deduced based on their MS1 and MS2 spectra.

[3] = Hepatocyte stability, mouse; format: in vitro ADME, CD-1 mouse
Description: as §2, §3

[4] = Hepatocyte stability, rat; format: in vitro ADME, Sprague-Dawley rat
Description: as §2, §3

[5] = Liver microsome stability, dog; format: in vitro ADME
Description: The final incubation volume was 50 μL. Control incubations were included for each species where 0.1 M phosphate buffer pH 7.4 was added instead of NADPH (minus NADPH). Two control compounds were included for each species. […] The control (minus NADPH) was incubated for 45 minutes only. The reactions were stopped by transferring 25 μL of incubate to 50 μL methanol at the appropriate time points. The incubation plates were centrifuged at 2,500 rpm for 20 minutes at 4° C. to aid protein precipitation. Experimental half-lives were transformed to the corresponding intrinsic clearance values and subsequently scaled to predicted in vivo clearance values, using the well-stirred model as previously described (Houston, Biochemical Pharmacology 47(9): 1469-1479, 1994; Obach, Drug Metabolism and Disposition 27(11): 1350-1359, 1999), with appropriate species-specific scaling factors (Barter et al., Current Drug Metabolism 8(1): 33-45, 2007).

[6] = Pharmacokinetic study in mouse; format: in vivo, CD-1 mouse
Description: Oral and IV doses were administered by oral gavage, or by tail vein injection in a 10% ethanol and 90% saline vehicle, respectively. For PO dosing, samples were taken at 0.167, 0.5, 1, 2, 4, 6 and 24 h p.d. For IV administration, samples were taken at 0.05, 0.167, 0.5, 1, 2, 4, 6 and 24 h p.d. Blood samples were centrifuged at 4° C. (2000 g, 5 minutes) to obtain plasma within 15 minutes after sample collection. The levels of Compound A were quantitated in mouse plasma by LC-MS/MS analysis. […] Typically, samples were injected onto an LC-MS/MS system using a Waters BEH Phenyl column. The aqueous mobile phase was water with 0.1% NH4OH (A), and the organic mobile phase was acetonitrile with 0.1% NH4OH (B). The gradient was as follows: 37% B for the first 0.2 min, increased to 44% B from 0.2 to 0.6 min, maintained at 44% B for 0.5 min, and decreased to 37% B within 0.05 min. The injection volume was 2 uL, and the total run time was 1.5 min with a flow rate of 0.6 mL/min. […] The ionization was conducted in the positive ion mode using the MRM transition [M+H]+m/z 563.5 parent ion to m/z 326.3 daughter ion, incorporating a turbo-ionspray interface. Eight to ten calibration standards were prepared in blank plasma of the relevant species providing a typical standard curve concentration range of 5-500 ng/mL. Pharmacokinetic parameters were calculated by noncompartmental methods using WinNonlin (version 5.3; Pharsight, St. Louis, Mo.). Parameters are presented as mean±S.D.

[7] = male, CD-1, mouse, plasma, iv, 5 mg/kg, IV bolus
[8] = male, plasma, CD-1 mouse, IV bolus, 5 mg/kg
[9] = male, plasma, CD-1 mouse, PO, 20 mg/kg

Which half-life at 1 μM (Plasma stability, rat) does the source give for CC(C)N(C[C@H]1O[C@@H](n2cnc3c(N)ncnc32)[C@H](O)[C@@H]1O)[C@H]1C[C@@H](CCc2nc3cc(C(C)(C)C)ccc3[nH]2)C1 [Compound A, (2R,3R,4S,5R)-2-(6-amino-9H-purin-9-yl)-5-((((1r,3S)-3-(2-(5-(tert-butyl)-1H-benzo[d]imidazol-2-yl)ethyl)cyclobutyl)(isopropyl)amino)methyl)tetrahydrofuran-3,4-diol] here?
Its half-life at 1 μM is > 120 min.

What about the half-life at 1 μM (Plasma stability, human) of the same compound?
The half-life at 1 μM was > 120 min.

What about the “Scaled Hepatic CL from hepatocytes” value [1] of the same compound?
Its value is 21 mL/min/kg.

And the hepatocyte CLint at 3 μM ([1]; beagle, cryopreserved hepatocytes in suspension, pH 7.4, 3 μM)?
The hepatocyte CLint at 3 μM was 14.9 µL/min/1e6 cells.

What about the “Abundance based on UV spectra” value [2] of the same compound?
The value was 25.4%.

And the hepatocyte CLint at 3 μM ([3]; CD-1, mouse, cryopreserved hepatocytes in suspension, pH 7.4, mouse, 3 μM)?
Its hepatocyte CLint at 3 μM is < 4 µL/min/1e6 cells.

What about the “Scaled Hepatic CL from hepatocytes” value ([3]; mouse) of the same compound?
Its value is 26 mL/min/kg.

And the “Hepatocyte CLint” value ([3]; mouse, 3 μM)?
Its value is 3.5 uL/min/million cells.

What about the “Scaled Hepatic CL from hepatocytes” value [4] of the same compound?
The value was 7 mL/min/kg.

What about the microsomal CLint at 3 μM ([5]; liver microsomes, pH 7.4, NADPH, 3 μM) of the same compound?
The microsomal CLint at 3 μM was 39 µL/min/mg.

And the “Scaled Hepatic CL from liver microsomes” value ([5]; well-stirred model)?
Its value is 20 mL/min/kg.

And the CL ([6]; CD-1 mouse, IV bolus, 5 mg/kg)?
Its CL is 76.7 ± 11.5 mL/min/kg.

What about the t1/2 ([6]; CD-1 mouse, IV bolus, 5 mg/kg) of the same compound?
Its t1/2 is 68.4 ± 21 min.

And the F ([6]; CD-1 mouse, PO, 20 mg/kg)?
The F was <1%.

What about the Vd ([6]; male, CD-1, mouse, plasma, iv, 5 mg/kg, CD-1 mouse, IV bolus, 5 mg/kg, read-out: VDss) of the same compound?
The Vd was 1.58 L/kg.

What about the clearance [6, 7] of the same compound?
The clearance was 77 mL/min/kg.

What about the half-life [6, 7] of the same compound?
The half-life was 66 min.

And the Vd ([6]; male, CD-1, mouse, plasma, iv, 5 mg/kg, mouse, read-out: Unbound VDss)?
The Vd was 11.4 L/kg.

What about the AUC(0-inf) [6, 8] of the same compound?
Its AUC(0-inf) is 1.96 ± 0.3 µM·h.

And the AUC(0-t) [6, 8]?
Its AUC(0-t) is 1.95 ± 0.28 µM·h.

And the Cmax [6, 8]?
Its Cmax is 7.99 ± 1.9 µM.

And the MRT [6, 8]?
Its MRT is 21 ± 3.6 min.

And the Tmax [6, 8]?
Its Tmax is 3 min.

What about the AUC(0-t) [6, 9] of the same compound?
Its AUC(0-t) is 0.0014 µM·h.

What about the Cmax [6, 9] of the same compound?
Its Cmax is 0.0019 µM.

What about the Tmax [6, 9] of the same compound?
The Tmax was 30 min.

And the “oral bioavailability (in words)” value ([6]; mouse, PO)?
Its value is “low and negligible”.
